Measurements as given in ChEMBL document CHEMBL1201862, “PubChem BioAssay data set” (2004).
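A five-concentration, 48-hour dose response in 96-well plates underlies each endpoint, interpolated linearly between surrounding concentrations. GI50: concentration for 50% inhibition of growth.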 The source made the active and inactive calls. No stated cut-off is given here; in the data, active = GI50 up to about 1.1 µM and inactive = higher.

Experiments:
Experiment in all cases: growth of human tumour cells (NCI), 48 h
NCI-H23 = test system: NCI-H23
HL-60 = test system: HL-60
EKVX = test system: EKVX
HT-29 = test system: HT-29
OVCAR-3 = test system: OVCAR-3
MDA-MB-231 = test system: MDA-MB-231
IGROV-1 = test system: IGROV-1
SNB-19 = test system: SNB-19
PC-3 = test system: PC-3
UACC-257 = test system: UACC-257
SNB-78 = test system: SNB-78
HCC 2998 = test system: HCC 2998
A498 = test system: A498
M14 = test system: M14
NCI-H522 = test system: NCI-H522
DU-145 = test system: DU-145
SK-OV-3 = test system: SK-OV-3
Hs-578T = test system: Hs-578T
NCI-H460 = test system: NCI-H460
HOP-62 = test system: HOP-62

Structure (SMILES)	GI50 (NCI-H23)	GI50 (HL-60)	GI50 (EKVX)	GI50 (HT-29)	GI50 (OVCAR-3)	GI50 (MDA-MB-231)	GI50 (IGROV-1)	GI50 (SNB-19)	GI50 (PC-3)	GI50 (UACC-257)	GI50 (SNB-78)	GI50 (HCC 2998)	GI50 (A498)	GI50 (M14)	GI50 (NCI-H522)	GI50 (DU-145)	GI50 (SK-OV-3)	GI50 (Hs-578T)	GI50 (NCI-H460)	GI50 (HOP-62)
O=P(NC12CC3CC(CC(C3)C1)C2)(N1CC1)N1CC1	6.05 µM (inactive)	3.09 µM (inactive)	> 100 µM (inactive)	21.2 µM (inactive)	> 86.1 µM (inactive)	> 100 µM (inactive)	> 92.9 µM (inactive)	17.1 µM (inactive)	> 100 µM (inactive)	> 100 µM (inactive)	> 100 µM (inactive)	> 100 µM (inactive)	45.5 µM (inactive)	37.1 µM (inactive)	25.7 µM (inactive)	6.31 µM (inactive)	> 55.5 µM (inactive)	89.3 µM (inactive)	2.46 µM (inactive)	12.8 µM (inactive)
CC(C)(C)NNc1c([N+](=O)[O-])cnn(-c2ccccc2)c1=O	4.82 µM (inactive)	1.34 µM (inactive)	9.14 µM (inactive)	2.84 µM (inactive)	2.59 µM (inactive)		20.4 µM (inactive)	11.2 µM (inactive)	1.83 µM (inactive)	4.6 µM (inactive)	15.6 µM (inactive)	7.14 µM (inactive)	29.8 µM (inactive)	2.17 µM (inactive)	1.77 µM (inactive)	12.8 µM (inactive)	9.02 µM (inactive)	7.76 µM (inactive)	7.36 µM (inactive)	8.63 µM (inactive)
O=C1/C(=C/c2ccccc2)CNC/C1=C\c1ccccc1	1.83 µM (inactive)	0.406 µM (active)	4.78 µM (inactive)	0.841 µM (active)	1.42 µM (inactive)		1.87 µM (inactive)	3.28 µM (inactive)		5.51 µM (inactive)	10.4 µM (inactive)	1.87 µM (inactive)	1.97 µM (inactive)	1.81 µM (inactive)	1.02 µM (active)		2.22 µM (inactive)		1.36 µM (inactive)	2.84 µM (inactive)
C/C(=N\N)C(CN1CCOCC1)C(c1ccccc1)c1c(O)c2ccccc2oc1=O (stereo unspecified)	> 100 µM (inactive)	30.4 µM (inactive)	83.6 µM (inactive)	> 100 µM (inactive)	> 61.4 µM (inactive)	91 µM (inactive)	> 100 µM (inactive)	> 100 µM (inactive)	> 100 µM (inactive)	> 100 µM (inactive)	> 100 µM (inactive)	> 100 µM (inactive)	69.8 µM (inactive)	> 76.6 µM (inactive)	> 52 µM (inactive)	> 100 µM (inactive)	> 100 µM (inactive)	> 100 µM (inactive)	> 80.7 µM (inactive)	> 91 µM (inactive)
C/C(=N\NS(=O)(=O)c1c(C)cc(C)cc1C)c1ccc[n+]([O-])n1	15.5 µM (inactive)	6.12 µM (inactive)	12.4 µM (inactive)	18.3 µM (inactive)	12.6 µM (inactive)		31.6 µM (inactive)	> 100 µM (inactive)		10.3 µM (inactive)	14.3 µM (inactive)	33 µM (inactive)	29.5 µM (inactive)	7.64 µM (inactive)	6.61 µM (inactive)		> 100 µM (inactive)		30.7 µM (inactive)	> 100 µM (inactive)
Cc1nc(-n2nc(-c3ccccc3)cc2-c2ccccc2)sc1C(=O)/C=C/c1ccc([N+](=O)[O-])cc1	18.4 µM (inactive)	17.2 µM (inactive)	> 43 µM (inactive)	16.3 µM (inactive)	10.4 µM (inactive)	33.1 µM (inactive)	20.5 µM (inactive)	24.2 µM (inactive)	17.2 µM (inactive)	34.5 µM (inactive)	61.9 µM (inactive)	16.2 µM (inactive)	> 43.8 µM (inactive)	27.6 µM (inactive)	16.5 µM (inactive)	21.8 µM (inactive)	> 65.8 µM (inactive)	27.7 µM (inactive)	25.2 µM (inactive)	20.1 µM (inactive)
